Measurements taken from patent US12433925B2, “Composition for photodynamic reaction containing extract of Ligularia fischeri as an effective ingredient, antimicrobial, antifungal and sterilization composition including the same, and sterilization method using the composition for photodynamic reaction” (KOREA INSTITUTE OF SCIENCE AND TECHNOLOGY, priority 2020, dated 2025).

What was measured:
[1] = tested on: Staphylococcus aureus KCTC 3881; test: Mouse splinted excisional wound model, wound size by caliper; assay type: in vivo, BALB/c mouse; settings: no red light
Experimental: (§1) A 7-week-old male BALB/c mouse (BALB-cAnNCr1jOri, Orientbio, Seongnam, South Korea) was housed for a week in a sterile animal room (SPF, Specific pathogen free) with a controlled air temperature of 22±2° C., a humidity of 50±10%, and the cycle of 12 hours of light and 12 hours of dark. The mice were anesthetized through an avertin intraperitoneal injection, a 5 mm wound was made therein using a biopsy patch, and a central portion of silicone drilled to an outside diameter of 15 mm and an inside diameter of 5 mm was stuck to fit the wound. Then, in the case of the experimental group, 10 μL of a physiological buffer solution (PBS) containing 10^9 CFU/mL of Staphylococcus aureus KCTC 3881 (S.A. bacterium) was inoculated into the wound site, which was then clogged with Tegaderm, and the back of the mice was wrapped with a compression bandage so that the wound site was not in contact with the outside.
Two days after the infection with Staphylococcus aureus, in the case of the group treated with Ligularia fischeri ethanol according to Preparation Example 1(1), the wound was treated with 10 μL of a Ligularia fischeri ethanol extract (20 μg/mL), and in the case of the red light treated group, the wound was treated with red light LED (wavelength: 660 nm, 120 W/m^2) for 15 minutes. In addition, in the case of the Ligularia fischeri ethanol extract according to Preparation Example 1(1) and the red light-treated group, 10 μL of the Ligularia fischeri ethanol extract (20 μg/mL) was treated on the wound for 30 minutes and then red light (120 W/m^2) was treated for 15 minutes. […]
The wound was treated in the same manner as above, even 4, 6, and 8 days after infection with Staphylococcus aureus, and the image of the wound site was obtained on Day 2, 4, 6, and 8 after infection with Staphylococcus aureus. The width and height of the wound site were measured using a caliper and the product obtained by multiplying the width with the height was used to calculate the wound size in mm^2. […]

[2] = tested on: Staphylococcus aureus KCTC 3881; test: Mouse splinted excisional wound model, wound closure by H&E histology (distance between epidermis tips); assay type: in vivo, BALB/c mouse; settings: no red light
Experimental: as §1
Two days after the infection with Staphylococcus aureus, in the case of the group treated with Ligularia fischeri ethanol according to Preparation Example 1(1), the wound was treated with 10 μL of a Ligularia fischeri ethanol extract (20 μg/mL), and in the case of the red light treated group, the wound was treated with red light LED (wavelength: 660 nm, 120 W/m^2) for 15 minutes. […]
A wound size measurement is a measurement of apparently appearing wound scab and requires the task of histologically confirming whether the wound has been closed by an epidermis actually newly created inside the scab. To this end, the distance between the wound epidermis was measured. […]
Example 1(1)+red light), and the ampicillin-treated group (S.A.bacteria+Ampicillin) on Day 8 after the wound is infected with Staphylococcus aureus (S.A.bacteria). […] At this time, statistical significance between Control (PBS) and S. A. bacteria-treated group was expressed as ^##p<0.001. Statistical significance with S. A. bacteria-treated group-treated group was expressed as *p<0.05 or […]. […]

CC1(C)S[C@@H]2[C@H](NC(=O)[C@H](N)c3ccccc3)C(=O)N2[C@H]1C(=O)O [ampicillin, Ampicillin]
wound size compared to the group treated with S.A. bacteria ([1]; Day 8, infected wound): no significant difference in wound size | wound size, % of the initial wound size ([1]; Day 8, wound infected with S.A. bacteria, topical 10 μL): 53.7% | change in wound size, uninfected (PBS) wound ([1]; PBS (no S.A. infection)): the change in wound size did not occur over time | wound closure (epidermis formation, H&E) ([2]; Day 8, PBS (uninfected) wound): completely closed | distance between epithelial tips (wound maintained) ([2]; Day 8, infected wound): 16.6% | histological wound size compared to the S.A. bacteria-treated group ([2]; Day 8, infected wound): reduced
